Results taken from patent publication US6492335B1, “Glycoconjugates from modified camptothecin derivatives (20-O-linkage)” (Bayer Aktiengesellschaft, priority 1996, dated 2002).
Values joined by “and” are separate entries in the source; they are usually repeats but may differ in a detail not shown here. Identical values can stand only once. Counter-ions that a name gives are not always drawn. Like-named read-outs stand apart in the source and are kept apart here.

Legend:
HT 29 = assay: Growth inhibition test (MTT) for cytotoxic properties; format: cell-based, human
Protocol: (§1) The human large intestine cell lines SW 480 and HT 29 (ATCC No. CCL 228 and HBT 38) and the mouse melanoma cell line B16F10 were grown in Roux dishes in RPMI 1640 medium with addition of 10% FCS. They were then trypsinized and taken up in RPMI plus 10% FCS to a cell count of 50,000 cells/ml. 100 μl of cell suspension/well were added to a 96 microwell plate and incubated for 1 day at 37° C. in a CO2 incubator. A further 100 μl of RPMI Medium and 1 μl of DMSO containing the test substances were then added. The growth was checked after day 3 and day 6. To this end, 40 μl of MTT solution (3-(4,5-dimethylthiazol-2-yl)-2,5-diphenyltetrazoline bromide) having a starting concentration of 5 mg/ml of H2O were added to each microwell. Incubation was carried out for 5 hours in a CO2 incubator at 37° C. The medium was then aspirated and 100 μl of i-propanol/well were added. After shaking for 30 min with 100 μl of H2O, the extinction was measured at 540 nm using a Titertek Multiscan MCC/340 (Flow).
(§2) The cytotoxic action is indicated in Table 1 as the IC50 value in each case for the SW 480 and HT 29 and B16F10 cell lines: […]

SW 480 = assay: as above; format: cell-based, human
Protocol: as §1, §2

B16F10 = assay: as above; format: cell-based, mouse
Protocol: as §1, §2

[1] = test system: mouse bone marrow stem cells; assay: Inhibition of the CSF-induced proliferation of mouse bone marrow stem cells (colony formation); conditions: recombinant murine GM-CSF, 7 days
Protocol: Bone marrow cells were washed out of mice femurs. 10^5 cells were incubated at 37° C. and 7% CO2 in McCoy 5A medium (0.3% agar) together with recombinant murine GM-CSF (Genzyme; stem cell colony formation) and the substances (10^−4 to 100 μg/ml). 7 days later, the colonies (<50 cells) and clusters (17-50 cells) were counted.

[2] = In vivo inhibition of tumour growth in the nude mouse model; conditions: NMRI nu/nu, mouse, in vivo, ip; nude mice, i.p. on day 1, 2 and 3; read-out: Maximum tolerable dose (MTD)
Protocol: (§3) For all in vivo experiments for investigation of the inhibition of tumour growth athymic nude mice (NMRI nu/nu strain) were used. The selected large-cell lung carcinoma LXFL 529 was grown by serial passage in nude mice. The human origin of the tumour was confirmed by isoenzymatic and immunohistochemical methods.
(§4) The tumour was implanted subcutaneously into both flanks of 6 to 8 week old nu/nu nude mice. The treatment was started, depending on the doubling time, as soon as the tumours had reached a diameter of 5-7 mm. The mice were assigned to the treatment group and the control group (5 mice per group with 8-10 assessable tumours) by randomization. The individual tumours of the control group all grew progessively.
(§5) The size of the tumours was measured in two dimensions by means of a slide gauge. The tumour volume, which correlated well with the cell count, was then used for all evaluations. The volume was calculated according to the formula “length×breadth×breadth/2” ([a×b^2]/2, a and b represent two diameters at right angles).
(§6) The values of the relative tumour volume (RTV) were calculated for each individual tumour by dividing the tumour size on day X with the tumour size on day 0 (at the time of randomization). The mean values of the RTV were then used for the further evaluation.
(§7) The inhibition of the increase of the tumour volume (tumour volume of the test group/control group, T/C, in per cent) was the final measured value.
(§8) The administration of the compounds was carried out intraperitoneally (i.p.) on day 1, 2 and 3 after randomization.

[3] = test system: large-cell lung carcinoma LXFL 529; assay: as above; conditions: for Survival time: individual mice
Protocol: as §3, §4, §5, §6, §7, §8

[4] = human large intestine cell line HT 29, MTT, read-out: IC50 HT 29
[5] = SW480, human large intestine cell line SW 480, MTT, read-out: IC50 SW 480
[6] = B16-F10, mouse melanoma cell line B16F10, MTT, read-out: IC50 B16F10
[7] = 6.25 mg/kg/day i.p. on day 1, 2 and 3
[8] = 12.5 mg/kg/day (MTD) i.p. on day 1, 2 and 3

Structure (SMILES) | IC50 (HT 29; [4]) | IC50 (SW 480; [5]) | IC50 (B16F10; [6]) | further results
CCc1c2c(nc3ccccc13)-c1cc3c(c(=O)n1C2)COC(=O)C3(CC)OC(=O)[C@@H](NC(=O)[C@H](CCCCN)NC(=S)Nc1ccc(OC2OC(C)C(O)C(OC)C2O)cc1)C(C)C (stereo partly drawn) [Example 1.5, 7-Ethyl-20-O-{N^α-[O-(3-O-methyl-β-L-fucopyranosyl)-4-hydroxyl-phenyl-amino-thiocarbonyl]-lysyl-valyl)-camptothecin, hydrochloride] | 60 nM | 100 nM | 300 nM | 
CC[C@@]1(O)C(=O)OCc2c1cc1n(c2=O)Cc2cc3c(N)cccc3nc2-1 [9-amino-camptothecin] |  |  |  | IC50, inhibition of the CSF-induced proliferation of mouse bone marrow stem cells [1]: 1 ng/mL
CCc1c2c(nc3ccc(O)cc13)-c1cc3c(c(=O)n1C2)COC(=O)C3(CC)OC(=O)[C@@H](NC(=O)[C@H](CCCCN)NC(=S)Nc1ccc(OC2OC(C)C(O)C(OC)C2O)cc1)C(C)C (stereo partly drawn) [Example 6.1, 7-Ethyl-10-hydroxy-20-O-{N^α-[O-methyl-β-L-fucopyranosyl)-4-hydroxy-phenylamino-thiocarbonyl]-lysyl-valyl}-camptothecin, hydrochloride] | 200 nM | 150 nM | 3000 nM | 
CC[C@@]1(OC(=O)[C@H](CC(C)C)NC(=O)[C@H](CCCCN)NC(=S)Nc2ccc(O[C@H]3O[C@@H](C)[C@@H](O)[C@@H](OC)[C@@H]3O)cc2)C(=O)OCc2c1cc1n(c2=O)Cc2cc3cc4c(cc3nc2-1)OCO4 [Example 2.4, 20(S)-10,11-Methylenedioxy-20-O-{N^α-[O-(3-O-methyl-β-L-fucopyranosyl)-4-hydroxy-phenylamino-thiocarbonyl]-lysyl-leucyl}-camptothecin, hydrochloride] | 3 nM | 5 nM | 10 nM | 
CCC1(OC(=O)[C@H](C)NC(=O)[C@H](CCCCNC(=S)Nc2ccc(OC3O[C@@H](C)[C@@H](O)[C@@H](OC)[C@@H]3O)cc2)NC(=S)Nc2ccc(OC3O[C@@H](C)[C@@H](O)[C@@H](OC)[C@@H]3O)cc2)C(=O)OCc2c1cc1n(c2=O)Cc2cc3cc4c(cc3nc2-1)OCO4 (stereo partly drawn) [Example 2.1, 20(R,S)-10,11-Methylenedioxy-20-O-{N^α,N^ε-bis-[O-(3-O-methyl-β-L-fucopyranosyl)-4-hydroxy-phenylamino-thiocarbonyl]-lysyl-alanyl}-camptothecin] | 5 nM | 7 nM | 15 nM | 
CC[C@@]1(OC(=O)[C@H](C)NC(=O)[C@H](CCCCNC(=S)Nc2ccc(OC3O[C@@H](C)[C@@H](O)[C@@H](OC)[C@@H]3O)cc2)NC(=S)Nc2ccc(OC3O[C@@H](C)[C@@H](O)[C@@H](OC)[C@@H]3O)cc2)C(=O)OCc2c1cc1n(c2=O)Cc2c-1nc1ccccc1c2COC(=O)[C@H](C)NC(=O)[C@H](CCCCNC(=S)Nc1ccc(OC2O[C@@H](C)[C@@H](O)[C@@H](OC)[C@@H]2O)cc1)NC(=S)Nc1ccc(OC2O[C@@H](C)[C@@H](O)[C@@H](OC)[C@@H]2O)cc1 (stereo partly drawn) [Example 4.1, 20(S)-7-{N^α,N^ε-bis-[O-(3-O-Methyl-β-L-fucopyranosyl)-4-hydroxy-phenylamino-thiocarbonylmino-thiocarbonyl]-lysyl-alanyloxymethyl}-20-O-{N^α,N^ε-bis-[O-(3-O-methyl-β-L-fucopyranosyl)-4-hydroxy-phenylamino-thiocarbonyl]-lysyl-alanyl}-camptothecin] |  |  |  | IC50 (HT 29; Homo sapiens, HT-29, read-out: IC50 HT 29): 40 nM; IC50 (SW 480; Homo sapiens, SW480, read-out: IC50 SW 480): 40 nM; IC50 (B16F10; Mus musculus, B16-F10, read-out: IC50 B16F10): 300 nM
CC[C@@]1(OC(=O)[C@H](CC(C)C)NC(=O)[C@H](CCCCN)NC(=S)Nc2ccc(O[C@H]3O[C@@H](C)[C@@H](O)[C@@H](OC)[C@@H]3O)cc2)C(=O)OCc2c1cc1n(c2=O)Cc2c-1nc1cc3c(cc1c2CN1CCN(C)CC1)OCCO3 [Example 5.1, 20(S)-7-[4-(Methylpiperazino)methy]-10,11-(ethylenedioxy)-20-O-{N^α-[O-(3-O-methyl-β-L-fucopyranosyl)4-hydroxy-phenylamino-thiocarbonyl-lysyl-leucyl}-camptothecin, hydrochloride] | 40 nM | 70 nM | 200 nM | 
CCc1c2c(nc3ccccc13)-c1cc3c(c(=O)n1C2)COC(=O)[C@@]3(CC)OC(=O)[C@H](C)NC(=O)[C@H](CCCCNC(=S)Nc1ccc(OC2O[C@@H](C)[C@@H](O)[C@@H](OC)[C@@H]2O)cc1)NC(=S)Nc1ccc(OC2O[C@@H](C)[C@@H](O)[C@@H](OC)[C@@H]2O)cc1 (stereo partly drawn) [Example 1.1, 20(S)-7-Ethyl-20-O-{N^α, N^ε-bis-[O-(3-O-methyl-β-L-fucopyranosyl)-4-hydroxy-phenylamino-thiocarbony]-lysyl-alanyl}-camptothecin] | 10 nM | 15 nM | 30 nM | MTD at 3 days [2]: 12.5 mg/kg/day; Relative body weight on day 7 [3, 7]: 98 % of day 0; Relative tumour volume on day 14 [3, 7]: 32 % of day 0; Survival time [3, 7]: >21 days (4×) and 13 days; Relative body weight on day 7 [3, 8]: 95 % of day 0; Relative tumour volume on day 14 [3, 8]: 0.1 % of day 0; Survival time [3, 8]: >21 days
CCc1c2c(nc3ccccc13)-c1cc3c(c(=O)n1C2)COC(=O)[C@]3(O)CC [7-ethyl-camptothecin] |  |  |  | IC50, inhibition of the CSF-induced proliferation of mouse bone marrow stem cells [1]: 0.002 ng/mL
CCC1(OC(=O)C(C)NC(=O)[C@H](CCCCN)NC(=S)Nc2ccc(OC3OC(C)C(O)C(OCC(=O)O)C3O)cc2)C(=O)OCc2c1cc1n(c2=O)Cc2cc3cc4c(cc3nc2-1)OCO4 (stereo partly drawn) [Example 2.3, 20(S)-10,11-Methylenedioxy-20-O-{N^α-[O-(3-O-carboxymethyl-β-L-fucopyranosyl)-4-hydroxy-phenylamino-thiocarbonyl]-lysyl-alanyl}-camptothecin, hydrochloride] | 3 nM | 6 nM | 9 nM | 
CC[C@@]1(OC(=O)[C@H](C)NC(=O)[C@H](CCCCNC(=S)Nc2ccc(OC3O[C@@H](C)[C@@H](O)[C@@H](OC)[C@@H]3O)cc2)NC(=S)Nc2ccc(OC3O[C@@H](C)[C@@H](O)[C@@H](OC)[C@@H]3O)cc2)C(=O)OCc2c1cc1n(c2=O)Cc2cc3c(N)cccc3nc2-1 (stereo partly drawn) [Example 3.1, 20(S)-9-Amino-20-O-{N^α,N^ε-bis-[O-(3-O-methyl-β-L-fucopyranosyl)4-hydroxy-phenylamino-thiocarbonyl]-lysyl-alanyl}-camptothecin] | 8 nM | 10 nM | 150 nM | 
